Source: ChEMBL document CHEMBL1143840, “In vivo efficacy of anidulafungin and caspofungin against Candida glabrata and association with in vitro potency in the presence of sera” (Antimicrob Agents Chemother, 2007)
Values after ≈ are worked out from the molar mass of the structure shown. Values joined by “and” are separate entries in the source; they are usually repeats but may differ in a detail not shown here. Equal entries are not always repeated. Active and inactive are the calls of the source. The calls are words filed in the database; no cut-off is given here. *1 amine or outer side, *2 acyl side, *3 side chain or, on linkers, in order; H or OH if unused. Where a SMILES comes first, the peptide text is derived from it. Bridges are numbered along the chain shown (N, C = ends). [ ]: non-standard residue; d: D form. The star is where a group is joined. pTerphenylCO(4''-OnC5H11) = CCCCCOc1ccc(-c2ccc(-c3ccc(C(=O)*)cc3)cc2)cc1; Orn(4R-OH,5R-OH) = O=C([C@H](C[C@@H](O)[C@@H](O)N[*:3])N[*:1])[*:2]; hTyr(3S-OH,4S-OH) = N[C@H](C(=O)O)[C@H](O)[C@@H](O)c1ccc(O)cc1; Pro(3S-OH,4S-Me) = C[C@H]1CN[C@H](C(=O)O)[C@H]1O; Hyp = O=C(O)[C@@H]1C[C@@H](O)CN1

What was measured:
Nakaseomyces glabratus [1] = experiment: Antifungal activity against Candida glabrata 05-761 isolate in presence of 50% human serum after 24 hrs by broth microdilution method; type: functional
Nakaseomyces glabratus [2] = experiment: Antifungal activity against Candida glabrata 05-761 isolate assessed as decrease in fungal turbidity in presence of 5% human serum by microdilution method; type: functional
Nakaseomyces glabratus [3] = experiment: Antifungal activity against Candida glabrata 05-761 isolate after 24 hrs by broth microdilution method; type: functional
Nakaseomyces glabratus [4] = experiment: Antifungal activity against Candida glabrata 05-62 isolate in presence of 50% mouse serum after 24 hrs by broth microdilution method; type: functional
Nakaseomyces glabratus [5] = experiment: Antifungal activity against Candida glabrata 05-761 isolate after 22 hrs by XTT assay; type: functional, organism-based
Nakaseomyces glabratus [6] = experiment: Antifungal activity against Candida glabrata 05-761 isolate infected ICR mouse kidney assessed as reduction of tissue fungal burden at 1 mg/kg, ip; type: functional, organism-based; set-up: dose 1 mg/kg
Nakaseomyces glabratus [7] = experiment: Antifungal activity against Candida glabrata 05-62 isolate in presence of 5% mouse serum after 24 hrs by broth microdilution method; type: functional
Nakaseomyces glabratus [8] = experiment: Antifungal activity against Candida glabrata 05-62 isolate in presence of 50% human serum after 24 hrs by broth microdilution method; type: functional
Nakaseomyces glabratus [9] = experiment: Antifungal activity against Candida glabrata 05-761 isolate infected ICR mouse kidney assessed as reduction of tissue fungal burden at 0.5 mg/kg, ip; type: functional, organism-based; set-up: dose 0.5 mg/kg
Nakaseomyces glabratus [10] = experiment: Antifungal activity against Candida glabrata 05-62 isolate after 2 hrs in presence of 50% mouse serum by XTT reduction assay; type: functional
Nakaseomyces glabratus [11] = experiment: Antifungal activity against Candida glabrata 05-62 isolate after 2 hrs in presence of 5% mouse serum by XTT reduction assay; type: functional
Nakaseomyces glabratus [12] = experiment: Antifungal activity against Candida glabrata 05-761 isolate in presence of 50% mouse serum after 24 hrs by broth microdilution method; type: functional
Nakaseomyces glabratus [13] = experiment: Antifungal activity against Candida glabrata 05-62 isolate after 22 hrs by XTT assay; type: functional, organism-based
Nakaseomyces glabratus [14] = experiment: Antifungal activity against Candida glabrata 05-761 isolate in presence of 5% mouse serum after 24 hrs by broth microdilution method; type: functional
Nakaseomyces glabratus [15] = experiment: Antifungal activity against Candida glabrata 05-761 isolate infected ICR mouse kidney assessed as reduction of tissue fungal burden at 5 mg/kg, ip; type: functional, organism-based; set-up: dose 5 mg/kg
Nakaseomyces glabratus [16] = experiment: Antifungal activity against Candida glabrata 05-761 isolate assessed as decrease in fungal turbidity in presence of 50% mouse serum by microdilution method; type: functional
Nakaseomyces glabratus [17] = experiment: Antifungal activity against Candida glabrata 05-761 isolate assessed as decrease in fungal turbidity in presence of 50% human serum by microdilution method; type: functional
Nakaseomyces glabratus [18] = experiment: Antifungal activity against Candida glabrata 05-62 isolate after 24 hrs by broth microdilution method; type: functional
Nakaseomyces glabratus [19] = experiment: Antifungal activity against Candida glabrata 05-62 isolate in presence of 5% human serum after 22 hrs by XTT assay; type: functional, organism-based
Nakaseomyces glabratus [20] = experiment: Antifungal activity against Candida glabrata 05-62 isolate assessed as decrease in fungal turbidity in presence of 50% human serum by microdilution method; type: functional
Nakaseomyces glabratus [21] = experiment: Antifungal activity against Candida glabrata 05-761 isolate in presence of 5% human serum after 24 hrs by broth microdilution method; type: functional, organism-based
Nakaseomyces glabratus [22] = experiment: Antifungal activity against Candida glabrata 05-62 isolate in presence of 5% human serum after 24 hrs by broth microdilution method; type: functional, organism-based
Nakaseomyces glabratus [23] = experiment: Antifungal activity against Candida glabrata 05-761 isolate assessed as decrease in fungal turbidity by microdilution method; type: functional
Nakaseomyces glabratus [24] = experiment: Antifungal activity against Candida glabrata 05-761 isolate assessed as decrease in fungal turbidity in presence of 5% mouse serum by microdilution method; type: functional
Nakaseomyces glabratus [25] = experiment: Antifungal activity against Candida glabrata 05-62 isolate assessed as decrease in fungal turbidity in presence of 5% human serum by microdilution method; type: functional
[26] = Nakaseomyces glabratus, 24 h, read-out: MIC

| SMILES | MIC (Nakaseomyces glabratus [1]) [µg/mL] | MIC (Nakaseomyces glabratus [2]) [µg/mL] | MIC (Nakaseomyces glabratus [4]) [µg/mL] | IC50 (Nakaseomyces glabratus [5]) [µg/mL] | IC90 (Nakaseomyces glabratus [5]) [µg/mL] | Activity (Nakaseomyces glabratus [6]) | MIC (Nakaseomyces glabratus [7]) [µg/mL] | MIC (Nakaseomyces glabratus [8]) [µg/mL] | Activity (Nakaseomyces glabratus [9]) | MIC (Nakaseomyces glabratus [10]) [µg/mL] | MIC (Nakaseomyces glabratus [11]) [µg/mL] | MIC (Nakaseomyces glabratus [12]) [µg/mL] | IC50 (Nakaseomyces glabratus [13]) [µg/mL] | IC90 (Nakaseomyces glabratus [13]) [µg/mL] | MIC (Nakaseomyces glabratus [14]) [µg/mL] | Activity (Nakaseomyces glabratus [15]) | MIC (Nakaseomyces glabratus [16]) [µg/mL] | MIC (Nakaseomyces glabratus [17]) [µg/mL] | MIC (Nakaseomyces glabratus [18]; [26]) [µg/mL] | IC50 (Nakaseomyces glabratus [19]) [µg/mL] | also measured |
| --- | --- | --- | --- | --- | --- | --- | --- | --- | --- | --- | --- | --- | --- | --- | --- | --- | --- | --- | --- | --- | --- |
| CCCCCOc1ccc(-c2ccc(-c3ccc(C(=O)N[C@H]4C[C@@H](O)[C@@H](O)NC(=O)[C@@H]5[C@@H](O)[C@@H](C)CN5C(=O)[C@H]([C@@H](C)O)NC(=O)[C@H]([C@H](O)[C@@H](O)c5ccc(O)cc5)NC(=O)[C@@H]5C[C@@H](O)CN5C(=O)[C@H]([C@@H](C)O)NC4=O)cc3)cc2)cc1 [ANIDULAFUNGIN] ({pTerphenylCO(4''-OnC5H11)}-[Orn(4R-OH,5R-OH)]T[Hyp][hTyr(3S-OH,4S-OH)]T[Pro(3S-OH,4S-Me)]; lactam 1-C) | 2 | 0.5 | 8 | 0.05 (≈ 0.0438 µM) | 0.16 (≈ 0.14 µM) | Active | 4 | 16 | Active | 8 | 4 | 1 | 0.31 (≈ 0.272 µM) | 0.41 (≈ 0.36 µM) | 0.5 | inactive | 1 | 1 | 0.5 (≈ 0.438 µM) | 1.7 | MIC (Nakaseomyces glabratus [3]): 0.125 µg/mL and 0.06 µg/mL; MIC (Nakaseomyces glabratus [18]): 0.25 µg/mL (≈ 0.219 µM); IC90 (Nakaseomyces glabratus [19]): 3.1 µg/mL; MIC (Nakaseomyces glabratus [20]): 8 µg/mL; IC50 (Nakaseomyces glabratus [21]): 0.31 µg/mL; IC90 (Nakaseomyces glabratus [21]): 0.39 µg/mL; MIC (Nakaseomyces glabratus [21]): 0.5 µg/mL; IC50 (Nakaseomyces glabratus [22]): 1.7 µg/mL; IC90 (Nakaseomyces glabratus [22]): 3.1 µg/mL; MIC (Nakaseomyces glabratus [22]): 2 µg/mL; MIC (Nakaseomyces glabratus [23]): 0.06 µg/mL (≈ 0.0526 µM); MIC (Nakaseomyces glabratus [24]): 0.5 µg/mL; MIC (Nakaseomyces glabratus [25]): 2 µg/mL |
| CC[C@H](C)C[C@H](C)CCCCCCCCC(=O)N[C@H]1C[C@@H](O)[C@@H](NCCN)NC(=O)[C@@H]2[C@@H](O)CCN2C(=O)[C@H]([C@H](O)CCN)NC(=O)[C@H]([C@H](O)[C@@H](O)c2ccc(O)cc2)NC(=O)[C@@H]2C[C@@H](O)CN2C(=O)[C@H]([C@@H](C)O)NC1=O [CASPOFUNGIN] | 1 | 0.25 | > 32 | 1.1 (≈ 1.01 µM) | 1.6 (≈ 1.46 µM) | Active | > 32 | > 32 | Active | 8 | 4 | 2 | 1.2 (≈ 1.1 µM) | > 32 | 1 | inactive | 2 | 1 | > 32 | 1.4 | MIC (Nakaseomyces glabratus [3]; [26]): 2 µg/mL (≈ 1.83 µM); IC90 (Nakaseomyces glabratus [19]): > 32 µg/mL; MIC (Nakaseomyces glabratus [20]): 4 µg/mL; IC50 (Nakaseomyces glabratus [21]): 0.29 µg/mL; IC90 (Nakaseomyces glabratus [21]): 0.33 µg/mL; MIC (Nakaseomyces glabratus [21]): 0.5 µg/mL; IC50 (Nakaseomyces glabratus [22]): 1.4 µg/mL; IC90 (Nakaseomyces glabratus [22]): > 32 µg/mL; MIC (Nakaseomyces glabratus [22]): > 32 µg/mL; MIC (Nakaseomyces glabratus [23]): 1 µg/mL (≈ 0.915 µM); MIC (Nakaseomyces glabratus [24]): 1 µg/mL; MIC (Nakaseomyces glabratus [25]): 2 µg/mL |
